Laboratory results from PubChem BioAssay AID1963849 (Molecular Pharmacology Branch, DTP, NCI, 2024).

Tested on: 299254-011-R-J1-PDC complex spheroid viability
Test: Anticancer human tumor 299254-011-R-J1-PDC patient-derived melanoma cell line growth inhibition [POLQ]
Details: for IC50: curve of first compound; for viability, T/C: stronger effect = lower value
Method: Multicellular complex tumor spheroid response to Polymerase (POL) inhibitors (novobiocin, ART-558, RP6685) in combination with a variety of drugs and investigational agents in selected tumor cell lines
The POL inhibitors (novobiocin, ART-558, and RP6685) were evaluated both individually and in combination with standard of care and investigational anticancer small molecules within a complex spheroid model of solid tumors. . Complex spheroids include a stromal component modeled by human endothelial cells (HUVEC) and fibroblasts modeled by human mesenchymal stem cells (MSCs). The concentration ranges selected for each drug and investigational agent were based upon clinically achievable concentrations if the clinical Cmax of the agent was known.
Compounds. The drugs and investigational agents: novobiocin (NSC847541), ART-558 (NSC835418), RP-6685 (NSC848927), peposertib (NSC802822), ceralasertib (NSC780249), elimusertib (NSC800525), camonsertib (NSC841442), AZD-1390 (NSC803789), olaparib (NSC753686), talazoparib (NSC767125), rucaparib (NSC756644), sotorasib (NSC818433), MRTX-1133 (NSC836407), SN-38 (NSC673596), topotecan (NSC609699), epotoside (NSC141540), doxorubicin (NSC123127), gemcitabine (NSC613327), 5-fluorouracil (NSC19893), paclitaxel (NSC125973), vemurafenib (NSC761431), MSA-2 (NSC828583), SN-011 (NSC837082), adavosertib (NSC754352), prexasertib (NSC758257), carboplatin (NSC241240) and oxaliplatin (NSC266046), were obtained from the National Cancer Institute (NCI) Developmental Therapeutics Program Chemical Repository (21). The FDA-approved anticancer drug set is available from the Developmental Therapeutics Program at https://dtp.cancer.gov/organization/dscb/obtaining/. […] The stock solutions were prepared in dimethyl sulfoxide (DMSO, Sigma-Aldrich, St. Louis, MO, cat. D2650), except for the platinum compounds which were prepared in saline (Quality Biological, Gaithersburg, MD, cat. 114-055-101), at 800-fold the tested concentration and stored at -70 degrees C prior to their use. All drugs and investigational agents were tested over a range starting from a high concentration at or near the clinical Cmax and decreasing in half-log increments. If the clinical Cmax for an agent had not been determined, the highest concentration tested was 10 microM, except for SN-38, which was tested at a high concentration of 1 microM.
Cell Culture. All cells were maintained in an incubator at 37 degrees C and 5% CO2 with 95% humidity. The PDC lines were cultured according to standard operating procedures established by the NCI PDMR (https://pdmr.cancer.gov). Table 3 of the manuscript, lists the cell lines along with the number of the three cell types plated to form the mct-spheroids and media for tumor cell growth. After thawing, all PDC lines, except 997537-175-T-J1-PDC and 415267-285-R-J2-PDC, were cultured in Matrigel-coated flasks prepared with a working solution of 1X Ham's F-12 nutrient mix, without supplementation (Thermo Fisher Scientific, cat. 11765054), 100 U/mL penicillin-streptomycin (Thermo Fisher Scientific, cat. 15140122), and 2.5% Matrigel (Corning Inc., Corning, NY, cat. 354248) for the first three passages. The two PDC lines 997537-175-T-J1-PDC and 415267-285-R-J2-PDC were cultured on uncoated flasks. The 857933-349-R-J2-PDC line was cultured in 6C/Colon 1B media containing advanced DMEM/F-12 (Thermo Fisher Scientific, cat. 12634028), 10 mM HEPES (Thermo Fisher Scientific, cat. 15630080), 1X GlutaMAX supplement (Thermo Fisher Scientific, cat. 35050061), 0.1 mg/mL primocin (InvivoGen, San Diego, CA, cat. ant-pm-2), 10% defined fetal bovine serum, heat inactivated (HyClone Laboratories Inc., Logan, UT, cat. SH30070.03HI), 50% L-WRN conditioned media (ATCC, cat. CRL-3276), 1.25 mM N-Acetyl-L-cysteine (Sigma-Aldrich, cat. A9165), 10 mM nicotinamide (Sigma-Aldrich, cat. N0636), 1X B-27 supplement (Thermo Fisher Scientific, cat. 17504044), 1X N-2 supplement (Thermo Fisher Scientific, cat. […]

[1] = second compound 0.0316 µM, first compound 0.0316 µM
[2] = second compound 0.0316 µM, first compound 0.1 µM
[3] = second compound 0.0316 µM, first compound 0.316 µM
[4] = second compound 0.0316 µM, first compound 1 µM
[5] = second compound 0.1 µM, first compound 0.0316 µM
[6] = second compound 0.1 µM, first compound 0.1 µM
[7] = second compound 0.1 µM, first compound 0.316 µM
[8] = second compound 0.1 µM, first compound 1 µM
[9] = second compound 0.316 µM, first compound 0.0316 µM
[10] = second compound 0.316 µM, first compound 0.1 µM
[11] = second compound 0.316 µM, first compound 0.316 µM
[12] = second compound 0.316 µM, first compound 1 µM
[13] = second compound 1 µM, first compound 0.0316 µM
[14] = second compound 1 µM, first compound 0.1 µM
[15] = second compound 1 µM, first compound 0.316 µM
[16] = second compound 1 µM, first compound 1 µM
[17] = second compound 3.16 µM, first compound 0.0316 µM
[18] = second compound 3.16 µM, first compound 0.1 µM
[19] = second compound 3.16 µM, first compound 0.316 µM
[20] = second compound 3.16 µM, first compound 1 µM
[21] = second compound 10 µM, first compound 0.0316 µM
[22] = second compound 10 µM, first compound 0.1 µM
[23] = second compound 10 µM, first compound 0.316 µM
[24] = second compound 10 µM, first compound 1 µM
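Also: spheroids exposed to drugs for one week before measurement.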
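For viability, T/C in this document: percent viability relative to DMSO vehicle control taken as 100%.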

CC1COCCN1c1cc(C2(S(C)(=N)=O)CC2)nc(-c2ccnc3[nH]ccc23)n1 (centres undefined) + COC1C(OC(N)=O)C(O)C(Oc2ccc3c(O)c(NC(=O)c4ccc(O)c(CC=C(C)C)c4)c(=O)oc3c2C)OC1(C)C
IC50 (second compound 0.0316 µM): 6.05 µM | IC50 (second compound 0.1 µM): 5.77 µM | IC50 (second compound 0.316 µM): 6.98 µM | IC50 (second compound 1 µM): 5.46 µM | IC50 (second compound 3.16 µM): 7.19 µM | IC50 (second compound 10 µM): 6.75 µM | viability, T/C [1]: 110% | viability, T/C [2]: 116% | viability, T/C [3]: 102% | viability, T/C [4]: 85.3% | viability, T/C (second compound 0.0316 µM, first compound 3.16 µM): 66.5% | viability, T/C (second compound 0.0316 µM, first compound 10 µM): 38.1% | viability, T/C [5]: 110% | viability, T/C [6]: 95% | viability, T/C [7]: 111% | viability, T/C [8]: 106% | viability, T/C (second compound 0.1 µM, first compound 3.16 µM): 60.9% | viability, T/C (second compound 0.1 µM, first compound 10 µM): 39.9% | viability, T/C [9]: 98.9% | viability, T/C [10]: 98.7% | viability, T/C [11]: 110% | viability, T/C [12]: 106% | viability, T/C (second compound 0.316 µM, first compound 3.16 µM): 69.9% | viability, T/C (second compound 0.316 µM, first compound 10 µM): 41% | viability, T/C [13]: 112% | viability, T/C [14]: 122% | viability, T/C [15]: 109% | viability, T/C [16]: 85.8% | viability, T/C (second compound 1 µM, first compound 3.16 µM): 65% | viability, T/C (second compound 1 µM, first compound 10 µM): 35.7% | viability, T/C [17]: 101% | viability, T/C [18]: 122% | viability, T/C [19]: 105% | viability, T/C [20]: 101% | viability, T/C (second compound 3.16 µM, first compound 3.16 µM): 70.4% | viability, T/C (second compound 3.16 µM, first compound 10 µM): 41.8% | viability, T/C [21]: 122% | viability, T/C [22]: 103% | viability, T/C [23]: 109% | viability, T/C [24]: 90.9% | viability, T/C (second compound 10 µM, first compound 3.16 µM): 73.6% | viability, T/C (second compound 10 µM, first compound 10 µM): 37.6%

C=CCn1c(=O)c2cnc(Nc3ccc(N4CCN(C)CC4)cc3)nc2n1-c1cccc(C(C)(C)O)n1 + Cc1cccc(N(C)C(=O)C2C(O)CCN2c2nc(C)cc(C(F)(F)F)c2C#N)c1
IC50 (second compound 0.0316 µM): > 1 µM | IC50 (second compound 0.1 µM): > 1 µM | IC50 (second compound 0.316 µM): > 1 µM | IC50 (second compound 1 µM): > 1 µM | IC50 (second compound 3.16 µM): > 1 µM | IC50 (second compound 10 µM): > 1 µM | viability, T/C (second compound 0.0316 µM, first compound 0.00316 µM): 98.3% | viability, T/C (second compound 0.0316 µM, first compound 0.01 µM): 119% | viability, T/C [1]: 96% | viability, T/C [2]: 116% | viability, T/C [3]: 103% | viability, T/C [4]: 62.1% | viability, T/C (second compound 0.1 µM, first compound 0.00316 µM): 101% | viability, T/C (second compound 0.1 µM, first compound 0.01 µM): 103% | viability, T/C [5]: 106% | viability, T/C [6]: 103% | viability, T/C [7]: 90.2% | viability, T/C [8]: 67.4% | viability, T/C (second compound 0.316 µM, first compound 0.00316 µM): 111% | viability, T/C (second compound 0.316 µM, first compound 0.01 µM): 108% | viability, T/C [9]: 99.7% | viability, T/C [10]: 108% | viability, T/C [11]: 108% | viability, T/C [12]: 64.2% | viability, T/C (second compound 1 µM, first compound 0.00316 µM): 117% | viability, T/C (second compound 1 µM, first compound 0.01 µM): 98.6% | viability, T/C [13]: 110% | viability, T/C [14]: 99.8% | viability, T/C [15]: 90.5% | viability, T/C [16]: 57.8% | viability, T/C (second compound 3.16 µM, first compound 0.00316 µM): 104% | viability, T/C (second compound 3.16 µM, first compound 0.01 µM): 102% | viability, T/C [17]: 113% | viability, T/C [18]: 103% | viability, T/C [19]: 97.2% | viability, T/C [20]: 67% | viability, T/C (second compound 10 µM, first compound 0.00316 µM): 105% | viability, T/C (second compound 10 µM, first compound 0.01 µM): 109% | viability, T/C [21]: 89.4% | viability, T/C [22]: 96.5% | viability, T/C [23]: 88.2% | viability, T/C [24]: 59.3%
